What all share (format): functional
The subject of experiment [1] is Spodoptera frugiperda. Put plainly: Insecticidal activity against third instar larvae of Spodoptera frugiperda assessed as malformation and mortality at 100 ppm administered through larval diet.
Experiment [2] deals with Spodoptera frugiperda. The experiment in a line: Effect on feeding preference of third instar larvae of Spodoptera frugiperda assessed as food consumption at 100 ppm administered through larval diet by feeding election test relative to control.
In experiment [3] the test system is Staphylococcus aureus. Put plainly: Antibacterial activity against Staphylococcus aureus ATCC 6538P after 24 hrs by broth microdilution method.
Experiment [4] concerns Staphylococcus aureus. Put plainly: Antibacterial activity against methicillin-resistant Staphylococcus aureus F7 after 24 hrs by broth microdilution method. In general terms: Broth dilution looks for growth in wells or tubes with falling amounts of substance.

≈ marks a conversion by molar mass, not a printed value.

A word on the MIC: it is the smallest concentration in the dilution series that meets the test's criterion for growth inhibition. The low end stands for inhibition by little substance, the high end for a need for much substance.

Turning to `C=C[C@@]1(C)CC[C@@H]2[C@@]3(C)CCC[C@@](C)(CO[C@@H]4OC[C@H](O)[C@H](O)[C@H]4O)[C@@H]3CC[C@@]2(C)O1`, the figures for the Activity in the experiment on Spodoptera frugiperda [1] and in the experiment on Spodoptera frugiperda [2] were 80% and 1, respectively. Moreover, the MIC came out at 2000 µg/mL (≈ 4.56 mM) in the experiment with Staphylococcus aureus [3] and 1250 µg/mL (≈ 2.85 mM) against Staphylococcus aureus [4].

For the origin of these results see ChEMBL document CHEMBL1158735, “Manoyl oxide diterpenoids from Grindelia scorzonerifolia” (2005).
